Experiments:
EGFRWT = EGFRWT (Homo sapiens, UniProt P00533); test: In vitro enzymatic activity assay (Z'-LYTE), wild type EGFR; format: biochemical; conditions: Z'-LYTE FRET peptide assay; read-out: EGFRWT kinase activity (IC50)
Text: (§1) In vitro enzymatic activity assay: using Z′-LYTE™ technology (detect fluorescence, coupled-enzyme format, based on the differential sensitivity of phosphorylated and non-phosphorylated peptides to proteolytic cleavage), based on FRET, using Z′ LYTE™ FRET peptide substrate, detect the activity of compounds against enzymatic. […] After one hour, site specific protease which can recognize and cleaves non-phosphorylated FRET-peptide. After another hour, using an excitation wavelength of 400 nm excites, then detect the […] at 445 nm and 520 nm.

EGFR T790M kinase = target: T1, EGFR T790M kinase (Homo sapiens, UniProt P00533, T790M); test: In vitro enzymatic activity assay (Z'-LYTE), EGFR T790M; format: biochemical; conditions: Z'-LYTE FRET peptide assay; read-out: EGFRT790M kinase activity (IC50)
T1 construct: purchased invitrogen PV4803
Text: as §1

EGFRL858R = EGFRL858R (Homo sapiens, UniProt P00533, L858R); test: In vitro enzymatic activity assay (Z'-LYTE), EGFR L858R; format: biochemical; conditions: Z'-LYTE FRET peptide assay; read-out: EGFRL858R kinase activity (IC50)
Text: as §1

EGFRL861Q = EGFRL861Q (Homo sapiens, UniProt P00533, L861Q); test: In vitro enzymatic activity assay (Z'-LYTE), EGFR L861Q; format: biochemical; conditions: Z'-LYTE FRET peptide assay; read-out: EGFRL861Q kinase activity (IC50)
Text: as §1

EGFRL858R + T790M = EGFRL858R + T790M (Homo sapiens, UniProt P00533, L858R/T790M); test: In vitro enzymatic activity assay (Z'-LYTE), EGFR L858R + T790M; format: biochemical; conditions: Z'-LYTE FRET peptide assay; read-out: EGFRL858R + T790M kinase activity (IC50)
Text: as §1

[1] = system: H1975 (lung cancer cells, EGFR L858R&T790M); test: Cell proliferation by MTT, H1975; format: cell-based; conditions: Homo sapiens, NCI-H1975, read-out: H1975 50% inhibitory concentration (IC50), 72 h
[2] = system: HCC827 (lung cancer cells, EGFR E746-A750 deletion); test: Cell proliferation by MTT, HCC827; format: cell-based; conditions: Homo sapiens, HCC827, read-out: HCC827 50% inhibitory concentration (IC50), 72 h
[3] = system: A431 (Human epidermal carcinoma, EGFR high expression); test: Cell proliferation by MTT, A431; format: cell-based; conditions: A-431, read-out: A431 50% inhibitory concentration (IC50), 72 h
[4] = system: NCI-H820 (lung cancer cells); test: Cell proliferation by MTT, NCI-H820; format: cell-based; conditions: NCI-H820, read-out: NCI-H820 50% inhibitory concentration (IC50), 72 h

Sequence of EGFRL861Q (P00533 25-1210 L861Q): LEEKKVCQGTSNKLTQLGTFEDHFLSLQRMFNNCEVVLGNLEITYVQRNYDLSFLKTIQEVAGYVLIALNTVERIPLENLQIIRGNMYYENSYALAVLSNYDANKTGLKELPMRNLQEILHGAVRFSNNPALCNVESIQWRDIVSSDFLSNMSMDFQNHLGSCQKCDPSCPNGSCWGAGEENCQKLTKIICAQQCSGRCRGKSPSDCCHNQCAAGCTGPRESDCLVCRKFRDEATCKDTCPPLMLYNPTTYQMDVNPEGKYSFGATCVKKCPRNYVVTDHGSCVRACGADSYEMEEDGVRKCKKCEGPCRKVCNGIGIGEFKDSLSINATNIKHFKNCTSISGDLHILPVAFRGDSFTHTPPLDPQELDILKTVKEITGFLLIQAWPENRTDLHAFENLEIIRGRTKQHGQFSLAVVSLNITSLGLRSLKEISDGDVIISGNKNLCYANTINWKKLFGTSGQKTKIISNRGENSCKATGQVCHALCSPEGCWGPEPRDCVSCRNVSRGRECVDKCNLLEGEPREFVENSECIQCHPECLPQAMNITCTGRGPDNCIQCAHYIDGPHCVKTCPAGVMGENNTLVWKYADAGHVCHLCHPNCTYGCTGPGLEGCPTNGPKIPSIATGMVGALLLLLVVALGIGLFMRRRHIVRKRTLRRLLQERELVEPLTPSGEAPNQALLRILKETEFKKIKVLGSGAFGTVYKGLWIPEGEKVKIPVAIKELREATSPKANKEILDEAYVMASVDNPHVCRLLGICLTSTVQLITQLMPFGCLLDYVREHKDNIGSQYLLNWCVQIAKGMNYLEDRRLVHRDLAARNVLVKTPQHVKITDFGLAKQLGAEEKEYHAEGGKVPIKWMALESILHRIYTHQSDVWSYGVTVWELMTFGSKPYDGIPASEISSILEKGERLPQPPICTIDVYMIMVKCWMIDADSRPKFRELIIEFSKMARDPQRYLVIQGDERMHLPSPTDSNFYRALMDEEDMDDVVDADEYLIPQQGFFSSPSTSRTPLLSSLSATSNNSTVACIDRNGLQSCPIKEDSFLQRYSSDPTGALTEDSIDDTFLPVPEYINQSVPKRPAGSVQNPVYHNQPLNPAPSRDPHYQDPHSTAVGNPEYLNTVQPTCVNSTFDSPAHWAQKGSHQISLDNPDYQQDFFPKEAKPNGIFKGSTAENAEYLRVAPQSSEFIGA
Sequence of EGFRWT (P00533 25-1210): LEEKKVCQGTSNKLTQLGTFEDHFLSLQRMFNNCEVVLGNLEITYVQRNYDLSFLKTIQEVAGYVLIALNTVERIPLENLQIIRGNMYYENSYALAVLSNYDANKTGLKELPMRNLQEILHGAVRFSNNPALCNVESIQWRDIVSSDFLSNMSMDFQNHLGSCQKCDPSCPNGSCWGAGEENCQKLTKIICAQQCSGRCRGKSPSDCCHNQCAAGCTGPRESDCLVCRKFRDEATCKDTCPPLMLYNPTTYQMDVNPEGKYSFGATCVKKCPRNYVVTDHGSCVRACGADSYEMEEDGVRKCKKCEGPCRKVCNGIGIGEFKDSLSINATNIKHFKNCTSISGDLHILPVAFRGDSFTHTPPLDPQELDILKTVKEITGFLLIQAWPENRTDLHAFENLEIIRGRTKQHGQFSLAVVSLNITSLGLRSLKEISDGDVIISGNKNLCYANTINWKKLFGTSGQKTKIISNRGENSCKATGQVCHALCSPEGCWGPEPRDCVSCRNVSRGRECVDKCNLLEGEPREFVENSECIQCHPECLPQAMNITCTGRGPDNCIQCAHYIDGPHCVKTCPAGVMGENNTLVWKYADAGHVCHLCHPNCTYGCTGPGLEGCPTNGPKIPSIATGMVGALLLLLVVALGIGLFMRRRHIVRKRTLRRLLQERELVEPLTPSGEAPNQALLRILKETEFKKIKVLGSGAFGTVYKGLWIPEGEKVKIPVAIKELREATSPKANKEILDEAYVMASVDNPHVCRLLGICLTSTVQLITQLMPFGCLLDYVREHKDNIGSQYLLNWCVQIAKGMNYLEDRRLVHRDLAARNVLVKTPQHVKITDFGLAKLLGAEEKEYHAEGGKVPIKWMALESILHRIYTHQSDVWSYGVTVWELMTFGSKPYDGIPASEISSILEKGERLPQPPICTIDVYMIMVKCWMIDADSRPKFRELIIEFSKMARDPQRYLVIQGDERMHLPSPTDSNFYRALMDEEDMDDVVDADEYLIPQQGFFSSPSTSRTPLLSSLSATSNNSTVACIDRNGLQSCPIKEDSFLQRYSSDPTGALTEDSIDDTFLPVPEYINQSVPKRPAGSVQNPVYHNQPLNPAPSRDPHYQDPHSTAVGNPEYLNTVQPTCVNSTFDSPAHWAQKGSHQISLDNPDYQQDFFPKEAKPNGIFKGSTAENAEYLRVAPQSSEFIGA
T1 sequence (P00533 25-1210 T790M): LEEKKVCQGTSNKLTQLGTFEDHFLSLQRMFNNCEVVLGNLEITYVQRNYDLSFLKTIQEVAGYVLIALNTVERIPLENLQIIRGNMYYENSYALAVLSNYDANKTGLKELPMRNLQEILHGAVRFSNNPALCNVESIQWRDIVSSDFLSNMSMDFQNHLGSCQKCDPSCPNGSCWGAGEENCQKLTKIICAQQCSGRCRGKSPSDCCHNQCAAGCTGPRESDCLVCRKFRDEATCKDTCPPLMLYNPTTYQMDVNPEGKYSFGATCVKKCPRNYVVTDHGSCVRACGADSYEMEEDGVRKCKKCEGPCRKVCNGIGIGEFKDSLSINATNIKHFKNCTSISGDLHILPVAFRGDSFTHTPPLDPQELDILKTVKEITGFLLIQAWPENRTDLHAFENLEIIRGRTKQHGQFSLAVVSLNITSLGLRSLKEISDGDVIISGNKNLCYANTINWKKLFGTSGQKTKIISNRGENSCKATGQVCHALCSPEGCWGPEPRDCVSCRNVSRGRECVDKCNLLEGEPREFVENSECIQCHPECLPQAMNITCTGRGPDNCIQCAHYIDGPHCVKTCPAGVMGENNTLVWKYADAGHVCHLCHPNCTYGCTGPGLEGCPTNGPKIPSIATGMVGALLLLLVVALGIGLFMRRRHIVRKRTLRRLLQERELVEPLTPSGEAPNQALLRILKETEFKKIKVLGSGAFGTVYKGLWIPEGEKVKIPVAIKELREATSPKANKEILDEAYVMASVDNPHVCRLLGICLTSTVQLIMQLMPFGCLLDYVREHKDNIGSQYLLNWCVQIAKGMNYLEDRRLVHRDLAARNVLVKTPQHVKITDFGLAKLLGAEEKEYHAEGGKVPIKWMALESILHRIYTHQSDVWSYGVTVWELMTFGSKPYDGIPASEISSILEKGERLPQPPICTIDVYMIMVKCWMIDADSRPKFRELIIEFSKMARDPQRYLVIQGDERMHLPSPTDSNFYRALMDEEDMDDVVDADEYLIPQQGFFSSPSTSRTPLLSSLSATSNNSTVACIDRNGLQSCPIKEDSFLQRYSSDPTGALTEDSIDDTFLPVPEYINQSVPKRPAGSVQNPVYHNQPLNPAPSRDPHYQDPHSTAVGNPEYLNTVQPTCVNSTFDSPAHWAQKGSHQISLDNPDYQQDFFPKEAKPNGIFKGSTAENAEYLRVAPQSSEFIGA
Sequence of EGFRL858R (P00533 25-1210 L858R): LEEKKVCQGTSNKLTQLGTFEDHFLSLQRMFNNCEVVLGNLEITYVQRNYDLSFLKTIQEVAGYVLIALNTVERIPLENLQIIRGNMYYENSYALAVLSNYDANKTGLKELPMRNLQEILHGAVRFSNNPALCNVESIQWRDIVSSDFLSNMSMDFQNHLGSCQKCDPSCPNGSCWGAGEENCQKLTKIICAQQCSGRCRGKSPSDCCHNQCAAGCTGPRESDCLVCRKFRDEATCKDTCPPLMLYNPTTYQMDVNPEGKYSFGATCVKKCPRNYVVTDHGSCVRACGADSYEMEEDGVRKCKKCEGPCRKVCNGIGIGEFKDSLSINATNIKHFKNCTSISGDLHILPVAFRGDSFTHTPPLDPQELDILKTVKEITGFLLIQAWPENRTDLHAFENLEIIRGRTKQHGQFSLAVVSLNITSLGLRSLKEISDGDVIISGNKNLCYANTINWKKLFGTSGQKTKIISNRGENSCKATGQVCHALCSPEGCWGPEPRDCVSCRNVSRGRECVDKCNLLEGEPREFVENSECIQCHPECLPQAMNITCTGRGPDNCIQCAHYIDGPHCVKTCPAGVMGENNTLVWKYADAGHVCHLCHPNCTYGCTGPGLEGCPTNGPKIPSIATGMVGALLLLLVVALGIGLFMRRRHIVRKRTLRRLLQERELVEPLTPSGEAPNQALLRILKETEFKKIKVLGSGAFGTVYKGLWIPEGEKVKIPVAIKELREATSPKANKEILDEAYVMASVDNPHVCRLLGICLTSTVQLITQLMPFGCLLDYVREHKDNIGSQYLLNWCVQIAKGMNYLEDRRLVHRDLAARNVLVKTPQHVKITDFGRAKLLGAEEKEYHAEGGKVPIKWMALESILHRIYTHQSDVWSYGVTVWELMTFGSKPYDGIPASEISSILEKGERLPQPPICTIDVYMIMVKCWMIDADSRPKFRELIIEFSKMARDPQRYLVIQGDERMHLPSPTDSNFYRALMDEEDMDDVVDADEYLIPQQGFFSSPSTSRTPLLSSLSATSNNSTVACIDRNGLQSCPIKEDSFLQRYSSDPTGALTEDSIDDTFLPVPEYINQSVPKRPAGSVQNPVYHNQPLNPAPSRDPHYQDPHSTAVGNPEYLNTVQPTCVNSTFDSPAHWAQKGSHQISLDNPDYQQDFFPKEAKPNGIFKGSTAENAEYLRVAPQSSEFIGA

| IC50 (EGFRWT) [nM] | IC50 (EGFR T790M kinase) [nM] | IC50 (EGFRL858R) [nM] | IC50 (EGFRL861Q) [nM] | IC50 (EGFRL858R + T790M) [nM] | IC50 [1] [nM] | IC50 [2] [nM] | IC50 [3] [nM] | IC50 [4] [nM] | Structure (SMILES) |
| --- | --- | --- | --- | --- | --- | --- | --- | --- | --- |
| 10 to 100 | 100 to 1000 | 10 to 100 | ≤ 10 | 10 to 100 | 1530 | 409 | 8160 | 35600 | C=CC(=O)Nc1cccc(N2C(=O)N(C)Cc3cnc(Nc4ccc(N5CCCC5)cc4OC)nc32)c1 [C-EGF12, N-(3-(7-(2-methoxy-4-(pyrrolidin-1-yl)phenylamino)-3-methyl-2-oxo-3,4-dihydropyrimido[4,5-d]pyrimidin-1(2H)-yl)phenyl)acrylamide] |
| ≤ 10 | ≤ 10 | ≤ 10 | ≤ 10 | ≤ 10 | 173 | 53 | 1450 | 41500 | C=CC(=O)Nc1cccc(N2C(=O)N(C)Cc3cnc(Nc4ccc(N5CCN(C)CC5)cc4C)nc32)c1 [Compound X010, N-(3-(3-methyl-7-(2-methyl-4-(4-methylpiperazin-1-yl)phenylamino)-2-oxo-3,4-dihydropyrimido[4,5-d]pyrimidin-1(2H)-yl)phenyl)acrylamide] |
| ≤ 10 | ≤ 10 | ≤ 10 | ≤ 10 | ≤ 10 | 420 | 154 | 8030 | > 100000 | C=CC(=O)Nc1cccc(N2C(=O)N(C)Cc3cnc(Nc4ccc(N5CCCCC5)cc4)nc32)c1 [Compound X002, N-(3-(3-methyl-2-oxo-7-(4-(piperidin-1-yl)phenylamino)-3,4-dihydropyrimido[4,5-d]pyrimidin-1(2H)-yl)phenyl)acrylamide] |
| ≤ 10 | ≤ 10 | ≤ 10 | ≤ 10 | ≤ 10 | 129 | 0.2 | 24700 | > 100000 | C=CC(=O)Nc1cccc(N2C(=O)N(C(C)C)Cc3cnc(Nc4ccc(N5CCN(C)CC5)cc4OC)nc32)c1 [C-EGF24, N-(3-(3-isopropyl-7-(2-methoxy-4-(4-methylpiperazin-1-yl)phenylamino)-2-oxo-3,4-dihydropyrimido[4,5-d]pyrimidin-1(2H)-yl)phenyl)acrylamide] |
| ≤ 10 | 10 to 100 | ≤ 10 | ≤ 10 | 10 to 100 | 1070 | 495 | 24900 | > 100000 | C=CC(=O)Nc1cccc(N2C(=O)N(C)Cc3cnc(Nc4ccc(OCCOC)cc4OC)nc32)c1 [C-EGF22, N-(3-(7-(2-methoxy-4-(2-methoxyethoxy)phenylamino)-3-methyl-2-oxo-3,4-dihydropyrimido[4,5-d]pyrimidin-1(2H)-yl)phenyl)acrylamide] |
| ≤ 10 | ≤ 10 | ≤ 10 | ≤ 10 | ≤ 10 | 179 | 125 | 3440 | > 100000 | C=CC(=O)Nc1cccc(N2C(=O)N(C)Cc3cnc(Nc4ccc(N5CCC(N6CCN(C)CC6)CC5)cc4)nc32)c1 [Compound X003, N-(3-(3-methyl-7-(4-(4-(4-methylpiperazin-1-yl)piperidin-1-yl)phenylamino)-2-oxo-3,4-dihydropyrimido[4,5-d]pyrimidin-1(2H)-yl)phenyl)acrylamide] |
| ≤ 10 | 10 to 100 | ≤ 10 | ≤ 10 | ≤ 10 | 710 | 3 | > 5000 | > 100000 | C=CC(=O)Nc1cccc(N2C(=O)N(C)Cc3cnc(Nc4ccc(N5CCN(C)CC5)cc4OCC)nc32)c1 [Compound X009, N-(3-(7-(2-ethoxy-4-(4-methylpiperazin-1-yl)phenylamino)-3-methyl-2-oxo-3,4-dihydropyrimido[4,5-d]pyrimidin-1(2H)-yl)phenyl)acrylamide] |

— patent publication US20140296216A1, “PYRIMIDO[4,5-D]PYRIMIDINYL COMPOUNDS, PHARMACEUTICAL COMPOSITIONS AND USES THEREOF” (GUANGZHOU INSTITUTE OF BIOMEDICINE AND HEALTH, CHINESE …, priority 2011, published 2014)
